Source: publication PMC2642983 (AIDS (London, England), 2009)
Read-outs that look alike come from different tables or passages of the source. Marks after values point to notes of the source that are not given here.

Tests used:
[1] = tested on: wild-type HIV; conditions: estimated with no protein (protein-free medium); cited from earlier work
[2] = tested on: plasma proteins; conditions: no reference given; cited from earlier work
[3] = tested on: HIV RNA in the CSF; experiment: Detectable HIV RNA in CSF by CSF atazanavir detectability; format: in vivo
[4] = Population pharmacokinetic modelling; format: in vivo, human; conditions: for CSF penetration (% of plasma concentration): modeled estimate
[5] = for CSF concentrations fold lower than plasma concentrations: even with ritonavir boosting
[6] = cited from earlier work
[7] = tested on: HIV RNA in the CSF; conditions: over 3 weeks, all 13 participants receiving monotherapy; cited from earlier work
[8] = atazanavir with ritonavir, listed as atazanavir

COC(=O)N[C@H](C(=O)N[C@@H](Cc1ccccc1)[C@@H](O)CN(Cc1ccc(-c2ccccn2)cc1)NC(=O)[C@@H](NC(=O)OC)C(C)(C)C)C(C)(C)C [Atazanavir, atazanavir]
wild-type IC50 [1]: 1 ng/mL
bound to plasma proteins [2]: 86%
free (not bound to plasma proteins) [2]: 14%
participants with measurable CSF HIV RNA ([3]; 12/60 participants with more than 5 ng/ml atazanavir in the CSF, P = 0.13): 20%
participants with detectable (>50 copies/ml) HIV RNA in the CSF ([3]; seven of 19 participants with no measurable atazanavir in the CSF): 37%
Intersubject variability of ke ([4]; atazanavir with ritonavir): 17%
Residual variability of CSF concentrations ([4]; atazanavir with ritonavir): 26%
Residual variability of plasma concentrations ([4]; atazanavir with ritonavir): 49%
oral clearance ([4]; atazanavir with ritonavir, corresponds to ke and Vd/F): 9.4 L/h
Residual variability of CSF concentrations [4, 8]: 26%
Residual variability of plasma concentrations [4, 8]: 49%
CSF penetration (% of plasma concentration) ([4]; atazanavir with ritonavir): 0.0074 (0.74%)
CSF penetration (% of plasma concentration) [4, 8]: 0.74%
Vd/F ([4]; human, plasma, oral): 209 L
half-life ([4]; human, plasma, oral): 15 h
k el ([4]; human, plasma, oral): 1.25e-05 s⁻¹
CSF specimens with concentrations near the protein-free IC50 (<5 ng/ml) ([5]; 11/67, after excluding probable nonadherence): 16%
CSF samples with undetectable atazanavir ([5]; <5 ng/ml, 19 of 79 samples): 24%
observed CSF concentrations ([5]; as summarised in the discussion): 10 ng/mL
CSF concentrations fold lower than plasma concentrations [5]: about 100 fold
CSF concentrations fold lower than plasma concentrations ([5]; listed as atazanavir): 100 fold
Kp ([5]; human, CSF, oral): < 0.01
Median (interquartile range) CSF concentration ([5]; with ritonavir): 10.3 (<5–21.1) ng/ml
Median (range) CSF concentration ([5]; with ritonavir, 68 CSF samples): 10.3 (<5–38) ^† ng/ml
Median (interquartile range) CSF concentration ([5]; without ritonavir): 7.9 (6.6–22) ng/ml
Median (range) CSF concentration ([5]; without ritonavir, 11 CSF samples): 7.9 (<5–40) ng/ml
atazanavir CSF concentrations, average % of plasma concentrations ([6]; in vivo): 0.9%
CSF atazanavir concentrations as % of plasma concentrations ([6]; seven HIV-infected patients): approximately 1%
median (IQR) plasma concentration (11 samples with no detectable CSF atazanavir but measurable plasma atazanavir): 315 (280–432) ng/ml
estimated free concentration of atazanavir in plasma (14% of 1510 ng/ml): approximately 210 ng/ml
plasma samples with undetectable atazanavir (<0.13 μg/ml, 17 of 149 samples): 11%
Median (interquartile range) plasma atazanavir concentration (atazanavir alone, without ritonavir): 523 (283–1344) ng/ml
median (IQR) plasma concentration (corresponding to the 60 CSF samples with detectable atazanavir): 1743 (925–2919) ng/ml
Median (interquartile range) plasma atazanavir concentration (with concomitant ritonavir): 1278 (525–2265) ng/ml
Median (range) plasma concentration (with ritonavir 100 mg daily, 130 plasma samples): 1278 (<128–5295) ^* ng/ml
Median (range) plasma concentration (without ritonavir, 18 plasma samples, 300 or 400 mg atazanavir daily): 523 (<128–6200) ng/ml

lopinavir/ritonavir
change in CSF HIV RNA levels [7]: substantial declines in CSF HIV RNA levels
